Data on five compounds can be found in US4983328A, “N-(4-(3-aminopropyl)aminobutyl)-2-(ω-gua nidino-fatty-acid-amido(-2-substituted-ethanamide, salt thereof, and process for preparation thereof” (Bristol-Myers Company, priority 1981, dated 1991).

Data set [1] relates to mouse leukemia L-1210 cells. Briefly: growth inhibitory activity to cancer cells in vitro (L-1210, 48 hours). It counts as cell-based. The note with it: for inhibition at 1.25 µg/mL: L1210, 1.25 mcg/ml; for inhibition at 1.25 µg/mL / inhibition at 2.5 µg/mL / inhibition at 5 µg/mL / inhibition at 10 µg/mL / inhibition at 20 µg/mL / inhibition at 40 µg/mL / inhibition at 80 µg/mL: read-out: Growth inhibition (%), (1-T/C) × 100; for inhibition at 2.5 µg/mL: L1210, 2.5 mcg/ml; for inhibition at 5 µg/mL: L1210, 5 mcg/ml; for inhibition at 10 µg/mL: L1210, 10 mcg/ml; for inhibition at 20 µg/mL: L1210, 20 mcg/ml; for inhibition at 40 µg/mL: L1210, 40 mcg/ml; for IC50: L1210, L-1210 cells, read-out: 50% inhibitory concentration; for inhibition at 80 µg/mL: L1210, 80 mcg/ml. In outline: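 L-1210 cells from DBA/2 mouse ascites, cultured at 5×10^4 cells per well in RPMI 1640 with 10% FCS and 5 μM 2-mercaptoethanol, 37° C, CO2, for 48 h with compound. Cell counts by Coulter Counter gave % inhibition (1−T/C)×100, and IC50 was derived across concentrations.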

A further data set deals with mouse leukemia L-1210. Briefly: therapeutic effect on implanted cancer in mice (L-1210, survival over 30 days). The note with it: L1210, ip, 720 h, 6 days; for responders at 0.2 mg/kg / response vs control in vivo at 0.2 mg/kg: 0.20 mg/kg/day i.p.; for responders at 0.2 mg/kg / responders at 0.39 mg/kg / responders at 0.78 mg/kg / responders at 1.56 mg/kg / responders at 3.13 mg/kg / responders at 6.25 mg/kg / responders at 12.5 mg/kg / responders at 25 mg/kg / responders at 50 mg/kg: read-out: Number of mice survived for 30 days (converted); for responders at 0.39 mg/kg / response vs control in vivo at 0.39 mg/kg: 0.39 mg/kg/day i.p.; for responders at 0.78 mg/kg / response vs control in vivo at 0.78 mg/kg: 0.78 mg/kg/day i.p.; for responders at 1.56 mg/kg / response vs control in vivo at 1.56 mg/kg: 1.56 mg/kg/day i.p.; for responders at 3.13 mg/kg / response vs control in vivo at 3.13 mg/kg: 3.13 mg/kg/day i.p.; for responders at 6.25 mg/kg / response vs control in vivo at 6.25 mg/kg: 6.25 mg/kg/day i.p.; for responders at 12.5 mg/kg / response vs control in vivo at 12.5 mg/kg: 12.5 mg/kg/day i.p.; for responders at 25 mg/kg / response vs control in vivo at 25 mg/kg: 25 mg/kg/day i.p.; for responders at 50 mg/kg / response vs control in vivo at 50 mg/kg: 50 mg/kg/day i.p. It counts as in vivo, mouse (BDF1). Summed up: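 In vivo antileukemic activity was assessed using 5-week-old male BDF1 mice implanted i.p. with 10^5 L-1210 cells. Compound in physiological saline was given by daily intraperitoneal injection over 6 days beginning on the day of implantation; survival was monitored over a 30-day observation period, comparing treated with control groups.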

The nature of data set [2]: acute toxicity in mice (single intraperitoneal administration). The following applies: mouse, in vivo, ip; mice, single i.p.; read-out: LD50 (median lethal dose on single administration). The procedure:
In Table 8 median lethal doses (LD50) of typical compounds of this invention are shown, measured in mice upon single intraperitoneal administration, as well as maximum tolerated doses in terms of total dose when a fixed amount per unit body weight was administered intraperitoneally to mice once a day for 6 consecutive days.
*Median lethal dose on single administration.

Data set [3] in a line: cumulative toxicity in mice (maximum tolerated dose, once a day for 6 consecutive days). The note with it: mouse, in vivo, ip, i.p. once a day for 6 consecutive days, total dose, read-out: Maximum Tolerated Dose (total dose not causing death). Summed up:
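Mice dosed intraperitoneally once a day for 6 consecutive days with a fixed amount per unit body weight. The value is the maximum total dose not causing death.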

The mark [4] stands for this setting: read-out: Prolongation of survival period (%), T/C × 100.

Values after ≈ are worked out from the molar mass of the structure shown.

Consider `N=C(N)NCCCCCCC(=O)NC(O)C(=O)NCCCCNCCCN` (centres unmarked) [Compound 4, N-[4-(3-aminopropyl)aminobutyl]-2-(7-guanidinoheptanamido)-2-hydroxyethanamide], for which, in data set [1], the inhibition at 1.25 µg/mL was 20%, the inhibition at 2.5 µg/mL stood at 27.5%, the inhibition at 5 µg/mL was found to be 29.9% and the inhibition at 10 µg/mL amounted to 58.4%. Also, in data set [1], the inhibition at 20 µg/mL amounted to 75.5%, the inhibition at 40 µg/mL amounted to 78.7% and the IC50 is 8.1 µg/mL (≈ 20.9 µM). Besides, in the data set on mouse leukemia L-1210, the responders at 0.2 mg/kg was 0%, the responders at 0.39 mg/kg is 75%, the responders at 0.78 mg/kg was 100% and the responders at 1.56 mg/kg was 100%. Moreover, in the data set on mouse leukemia L-1210, the responders at 3.13 mg/kg is 50%, the responders at 6.25 mg/kg was 25%, the responders at 12.5 mg/kg is 50% and the responders at 25 mg/kg is 0%. The responders at 50 mg/kg in the data set on mouse leukemia L-1210 was 0%. For the same compound, in the data set on mouse leukemia L-1210 (setting [4]), the response vs control in vivo at 0.2 mg/kg was 197%, the response vs control in vivo at 0.39 mg/kg is more than 390%, the response vs control in vivo at 0.78 mg/kg was more than 429% and the response vs control in vivo at 1.56 mg/kg is more than 429%. Further, in the data set on mouse leukemia L-1210 (setting [4]), the response vs control in vivo at 3.13 mg/kg was more than 364%, the response vs control in vivo at 6.25 mg/kg is more than 369%, the response vs control in vivo at 12.5 mg/kg is more than 357% and the response vs control in vivo at 25 mg/kg was 336%. Moreover, in the data set with mouse leukemia L-1210 (setting [4]), the response vs control in vivo at 50 mg/kg was found to be 0%. The LD50 in data set [2] is 25 to 50 mg/kg. Besides, the MTD in data set [3] was more than 150 mg/kg.
In the case of `COC(NC(=O)C[C@@H](O)CCCCNC(=N)N)C(=O)NCCCCNCCCN` (some centres unmarked) [Compound 22, N-[4-(3-aminopropyl)aminobutyl]-2-(7-guanidino-3-hydroxyheptanamido)-2-methoxyethanamide], in data set [1], the inhibition at 2.5 µg/mL was 60.8%, the inhibition at 5 µg/mL stood at 82.6%, the inhibition at 10 µg/mL worked out at 94.5% and the inhibition at 20 µg/mL was 96.9%. Moreover, in data set [1], the inhibition at 40 µg/mL is 98.3% and the IC50 was 1.8 µg/mL (≈ 4.31 µM). In the data set with mouse leukemia L-1210, the responders at 1.56 mg/kg was 0%, the responders at 3.13 mg/kg is 0%, the responders at 6.25 mg/kg was 50% and the responders at 12.5 mg/kg is 62.5%. In addition, in the data set with mouse leukemia L-1210, the responders at 25 mg/kg is 75% and the responders at 50 mg/kg is 0%. Moreover, in the data set on mouse leukemia L-1210 (setting [4]), the response vs control in vivo at 1.56 mg/kg came out at 117%, the response vs control in vivo at 3.13 mg/kg was determined as 163%, the response vs control in vivo at 6.25 mg/kg is more than 332% and the response vs control in vivo at 12.5 mg/kg is more than 380%. In the data set with mouse leukemia L-1210 (setting [4]), the response vs control in vivo at 25 mg/kg was more than 414% and the response vs control in vivo at 50 mg/kg came out at 7%. For the same compound, in data set [2], the LD50 lay in the range of 25 to 50 mg/kg. Besides, the MTD in data set [3] was more than 150 mg/kg.
As for `N=C(N)NCCCCCCC=CC(=O)NC(O)C(=O)NCCCCNCCCN` (centres unmarked) [Compound 18, N-[4-(3-aminopropyl)aminobutyl]-2-(9-guanidino-2-nonenamido)-2-hydroxyethanamide], in data set [1], the inhibition at 5 µg/mL was 15.7%, the inhibition at 10 µg/mL was 20.9%, the inhibition at 20 µg/mL worked out at 29.5% and the inhibition at 40 µg/mL amounted to 32.3%. In addition, in data set [1], the inhibition at 80 µg/mL was determined as 47.8% and the IC50 was 90 µg/mL (≈ 218 µM). The responders at 0.1 mg/kg in the data set with mouse leukemia L-1210 (0.10 mg/kg/day i.p., read-out: Number of mice survived for 30 days) was determined as 0%. Further, the response vs control in vivo at 0.1 mg/kg with mouse leukemia L-1210 (0.10 mg/kg/day i.p., read-out: Prolongation of survival period (%), T/C × 100) came to 129%. Also, in the data set on mouse leukemia L-1210, the responders at 0.2 mg/kg was 0%, the responders at 0.39 mg/kg is 0%, the responders at 0.78 mg/kg is 0% and the responders at 1.56 mg/kg is 75%. In the data set on mouse leukemia L-1210, the responders at 3.13 mg/kg was 100%, the responders at 6.25 mg/kg was 50% and the responders at 12.5 mg/kg was 0%. In the data set with mouse leukemia L-1210 (setting [4]), the response vs control in vivo at 0.2 mg/kg worked out at 136%, the response vs control in vivo at 0.39 mg/kg is 157%, the response vs control in vivo at 0.78 mg/kg came to 200% and the response vs control in vivo at 1.56 mg/kg is more than 429%. For the same compound, in the data set with mouse leukemia L-1210 (setting [4]), the response vs control in vivo at 3.13 mg/kg is more than 429%, the response vs control in vivo at 6.25 mg/kg is more than 350% and the response vs control in vivo at 12.5 mg/kg stood at 0%. Also, in data set [2], the LD50 was 6.25 to 12.5 mg/kg. Moreover, the MTD in data set [3] is more than 37.5 mg/kg.
Take `CCOC(NC(=O)C[C@@H](O)CCCCNC(=N)N)C(=O)NCCCCNCCCN` (some centres unmarked) [Compound 23, N-[4-(3-aminopropyl)aminobutyl]-2-(7-guanidino-3-hydroxyheptanamido)-2-ethoxyethanamide]: in data set [1], the inhibition at 2.5 µg/mL stood at 58.5%, the inhibition at 5 µg/mL amounted to 85.5%, the inhibition at 10 µg/mL turned out to be 93% and the inhibition at 20 µg/mL is 96.1%. In data set [1], the inhibition at 40 µg/mL turned out to be 96.4% and the IC50 amounted to 2.2 µg/mL (≈ 5.1 µM). Further, in the data set with mouse leukemia L-1210, the responders at 3.13 mg/kg is 0%, the responders at 6.25 mg/kg was 0%, the responders at 12.5 mg/kg is 0% and the responders at 25 mg/kg was 0%. In addition, in the data set on mouse leukemia L-1210 (setting [4]), the response vs control in vivo at 3.13 mg/kg turned out to be 104%, the response vs control in vivo at 6.25 mg/kg was determined as 119%, the response vs control in vivo at 12.5 mg/kg was found to be 129% and the response vs control in vivo at 25 mg/kg was 200%. Besides, the LD50 in data set [2] is more than 25 mg/kg. In addition, the MTD in data set [3] is more than 150 mg/kg.
For the compound `COC(NC(=O)C=CCCCCNC(=N)N)C(=O)NCCCCNCCCN` (centres unmarked) [Compound 19, N-[4-(3-aminopropyl)aminobutyl]-2-(7-guanidino-2-heptenamido)-2-methoxyethanamide], in data set [1], the inhibition at 1.25 µg/mL was 29.9%, the inhibition at 2.5 µg/mL is 32.2%, the inhibition at 5 µg/mL worked out at 46.4% and the inhibition at 10 µg/mL came to 56.4%. Besides, in data set [1], the inhibition at 20 µg/mL stood at 75.6%, the inhibition at 40 µg/mL is 85.4%, the inhibition at 80 µg/mL was 93.1% and the IC50 came out at 6.3 µg/mL (≈ 15.8 µM). Besides, in the data set on mouse leukemia L-1210, the responders at 0.2 mg/kg is 0%, the responders at 0.39 mg/kg is 0%, the responders at 0.78 mg/kg was 0% and the responders at 1.56 mg/kg is 50%. Also, in the data set on mouse leukemia L-1210, the responders at 3.13 mg/kg was 50%, the responders at 6.25 mg/kg was 75%, the responders at 12.5 mg/kg is 50% and the responders at 25 mg/kg is 0%. Further, in the data set on mouse leukemia L-1210 (setting [4]), the response vs control in vivo at 0.2 mg/kg turned out to be 100%, the response vs control in vivo at 0.39 mg/kg is 107%, the response vs control in vivo at 0.78 mg/kg is 164% and the response vs control in vivo at 1.56 mg/kg is more than 350%. In the data set with mouse leukemia L-1210 (setting [4]), the response vs control in vivo at 3.13 mg/kg was more than 321%, the response vs control in vivo at 6.25 mg/kg is more than 429%, the response vs control in vivo at 12.5 mg/kg is more than 364% and the response vs control in vivo at 25 mg/kg amounted to 0%. Moreover, the LD50 in data set [2] was in the range of 12.5 to 25 mg/kg. The MTD in data set [3] was more than 75 mg/kg.
